Test results: publication PMC8269107, “Lipidation of Temporin-1CEb Derivatives as a Tool for Activity Improvement, Pros and Cons of the Approach” (International Journal of Molecular Sciences, 2021)
≈ marks a conversion by molar mass, not a printed value. Where a SMILES comes first, the peptide text is derived from it. The star is where a group is joined. Palmitoyl = CCCCCCCCCCCCCCCC(=O)*

Key:
C.glabrata CCM 8270 = assay: MIC, broth microdilution; assay type: cell-based, Candida glabrata; conditions: C.glabrata CCM 8270, 24 h
Description: (§1) Escherichia coli (PCM 2057 = ATCC 25922), Staphylococcus aureus (PCM 2054 = ATCC 25923), Staphylococcus epidermidis (PCM 2118 = ATCC 14990), Bacillus subtilis (PCM 2224 = ATCC 9799), Bacillus cereus (PCM 482 = ATCC 10702) and Pseudomonas aeruginosa (PCM 499 = ATCC 10145) were obtained from the Polish Collection of Microorganisms. Fungi strains Candida albicans (CCM 8186 = CNTC 49/64), Candida glabrata (CCM 8270 = ATCC 90030), Candida parapsilosis (CCM 8260 = ATCC 22019) and Candida krusei (CCM 8271 = ATCC 6258) were acquired from the Czech Collection of Microorganisms. S. aureus USA300 (wild type strain), the reference strain of Klebsiella pneumoniae (ATCC 13883) and clinical isolates of Pseudomonas aeruginosa (PA1, PA2) collected from nonrelated patients admitted to the Stefan Zeromski Specialist Municipal Hospital in Krakow (Poland) were kindly provided by the research group of the Department of Microbiology, Faculty of Biochemistry, Biophysics and Biotechnology, Jagiellonian University, Krakow, Poland.
(§2) Luria-Bertani broth (LB) and Sabouraud Dextrose broth (SB) (Biocorp, Poland) were used for cultivation of bacteria and fungi strains, respectively. The antimicrobial activity of the peptides were analyzed through determination of MIC (minimal inhibitory concentration) parameters according to Clinical and Laboratory Standards (CLSI) guidelines developed for aerobic bacteria and yeasts, respectively. Mueller-Hinton broth (MHB) was used as the working medium for all bacterial strains, while in the case of fungi, RPMI-1640 (with L-glutamine, without sodium bicarbonate) growth medium buffered with MOPS (morpholinepropanesulfonic acid) and supplemented with 2% glucose was used. Inoculum was prepared from freshly grown cultures of microorganisms at their exponential phase of growth. […] Plates were then incubated for 24 h at 37 °C in the case of bacteria and at 35 °C in the case of fungi. After that time, absorbance was read at 590 nm with a Perkin Elmer plate reader. Cultures without peptide were treated as positive control, while uninoculated media were defined as negative control. All measurements were run at least in triplicate.

P. aeruginosa PCM 499 = assay: MIC, broth microdilution; assay type: cell-based, Pseudomonas aeruginosa; conditions: P. aeruginosa PCM 499, 24 h
Description: as §1, §2

E. coli PCM 2057 = assay: MIC, broth microdilution; assay type: cell-based, Escherichia coli; conditions: E. coli PCM 2057, 24 h
Description: as §1, §2

S. aureus PCM 2054 = assay: MIC, broth microdilution; assay type: cell-based, Staphylococcus aureus; conditions: S. aureus PCM 2054, standard Mueller-Hinton broth, 24 h
Description: as §1, §2

[1] = tested on: C. albicans (CCM 8186) biofilm; assay: Biofilm inhibition assay (MTT); assay type: cell-based, Candida albicans; conditions: C. albicans biofilm development, 24 h post-inoculation
Procedure: In the case of bacteria, an overnight culture of S. aureus in Tryptic Soy Broth (TSB) supplemented with 2% glucose (TSB/+G) was used to prepare inoculum for the experiments. Briefly, 5 mL of 24 h culture was centrifuged at 5000× g, washed with sterile PBS and suspended in a fresh 2 × concentrated TSB/+G. In the case of yeasts, the overnight culture of C. albicans in Sabouraud dextrose broth (SB) was used for inoculum preparation. Similar to above, 5 mL of 24 h culture was centrifuged, washed with PBS and then suspended in sterile 2 × concentrated RPMI-1640 medium (with L-glutamine, without sodium bicarbonate) supplemented with 2% glucose (RPMI-1640/+G). In both cases, the cell concentration of the inoculum was about 1 × 10^7 cells per ml.
For the determination of the inhibitory concentration that reduced biofilm development by 50% (BIC50^, expressed in µg/mL), 100 µL inoculum in 2 × concentrated RPMI-1640/+G medium (in the case of C. albicans) or 2 x concentrated TSB/+G broth (in the case of S. aureus) was transferred to each well of 96-well plates containing 100 µL of serially diluted in water tested compounds. The final concentrations of the compounds were the same as those used in MIC determination studies. The 96-well plates were then incubated for 24 h at 37 °C and 35 °C in the case of bacteria and fungi, respectively. Viability of the microorganisms in the presence of the tested compounds was analyzed by means of MTT assay.
(§3) The reduction in biofilm viability was analyzed by means of MTT assay. Briefly, 20 μL of MTT solution (5 mg/mL in PBS) was added to prewashed wells with exchanged medium (180 μL of fresh medium) wells containing bacterial/yeast biofilms. Plates were then incubated in the dark for the next 3 h at 37 °C. After that time, the medium was replaced with 6 mM HCl in isopropanol and, when the reduced MTT was fully dissolved, the plates were read at 570 nm. Activity against fully developed 24 h old biofilm was described as biofilm eradication concentration (BEC50 expressed in µg/mL), which corresponded to the concentration of the compound able to reduce 50% of biofilm viability compared with the growth control.

S. epidermidis PCM 2118 = assay: MIC, broth microdilution; assay type: cell-based, Staphylococcus epidermidis; conditions: S. epidermidis PCM 2118, 24 h
Description: as §1, §2

[2] = tested on: S. aureus (PCM 2054) biofilm; assay: Biofilm eradication assay, pre-formed 24 h old biofilm (MTT); assay type: cell-based, Staphylococcus aureus; conditions: S. aureus pre-formed 24 h old biofilm, 24 h treatment
Procedure: Biofilm eradication activity of the synthesized compounds was analyzed against 24 h old biofilms of S. aureus and C. albicans. In the case of bacteria, an overnight culture of S. aureus in Tryptic Soy Broth (TSB) supplemented with 2% glucose (TSB/+G) was used to prepare inoculum for the experiments. Briefly, 5 mL of 24 h culture was centrifuged at 5000× g, washed with sterile PBS and suspended in a fresh TSB/+G. The bacterial suspension was then diluted in a fresh growth medium to obtain the final concentration of colonies of about 1 × 10^7 cells per ml. Further, 200 μL of the inoculum was transferred to each well of 96-well sterile polystyrene flat-bottomed plate, and bacteria were then incubated for the next 24 h without shaking at 37 °C.
After that, each well of the plates containing bacterial or fungi biofilm was washed three times with PBS in order to remove all non-adherent cells. Then, peptide solutions of 200 µL ranging from 50 to 0,39 µg/mL prepared in TSB +/G in the case of experiments on S. aureus biofilm, and (RPMI-1640/+G) in the case of C. alibcans, were prepared and transferred into the microtiter plates. After the addition of the peptides, the experiments were continued for the next 24 h.
as §3

Compound `CCCCCCCCCCCCCCCC(=O)N[C@H](C(=O)N[C@@H](CCCCN)C(=O)N[C@@H](CCCCN)C(=O)N[C@H](C(=O)N[C@@H](CC(C)C)C(=O)N[C@@H](CO)C(=O)N[C@@H](CCCCN)C(=O)N[C@H](C(=O)N[C@@H](CCCCN)C(=O)N[C@@H](CCCCN)C(=O)N[C@@H](CC(C)C)C(=O)N[C@@H](CC(C)C)C(N)=O)[C@@H](C)CC)[C@@H](C)CC)[C@@H](C)CC` [Compound C16-DK5] (Palmitoyl-IKKILSKIKKLL-NH2) has an MIC100 (C.glabrata CCM 8270) greater than 50 µg/mL, an MIC100 (P. aeruginosa PCM 499) greater than 50 µg/mL and an MIC100 (E. coli PCM 2057) greater than 50 µg/mL. It also gave an MIC100 (S. aureus PCM 2054) greater than 50 µg/mL, a BIC50 [1] greater than 50 µg/mL and an MIC100 (S. epidermidis PCM 2118) of 25 µg/mL (≈ 15 µM). The BEC50 [2] was 6.25 µg/mL.
